In paper PMC9414507, “Drug Repurposing Based on Protozoan Proteome: In Vitro Evaluation of In Silico Screened Compounds against Toxoplasma gondii” (Pharmaceutics, 2022):
Like-named read-outs stand apart in the source and are kept apart here.

Tests used:
[1] = ref Pandemic Response Box and COVID Box supporting information; cited from earlier work
[2] = Cytotoxicity in mammalian cells (MTT assay); format: cell-based; conditions: human, read-out: CC50 (Half Cytotoxic Concentration against HFF cells)
Protocol: HFF were seeded at 5 × 10^4 cells/well in 96-well microplates and incubated overnight to adhere to the plate. After that, the cells were incubated in the presence of increasing concentrations of the compounds for 72 h at 37 °C in a 5% CO2 humidified incubator. The viability of the cells was determined by the MTT assay as previously described. The medium in each well was replaced by PBS (100 µL/well), MTT (5 mg/mL) was added (20 µL/well), and the plate was incubated for 4 h at 37 °C. […] HFF incubated in D2 without drug treatment were used as viability control. Viability of 100% was expressed based on the optical density of untreated HFF cells, after normalization.

Row | Compound | Rule of Five [1] | CC50 at 72 h ([2]; HFF) | CC50 at 72 h ([2]; HFF cells)
1 | C[C@H]1O[C@@H](O[C@H]2[C@@H](O)C[C@H](O[C@H]3[C@@H](O)C[C@H](O[C@H]4CC[C@@]5(C)[C@H](CC[C@@H]6[C@@H]5CC[C@]5(C)[C@@H](C7=CC(=O)OC7)CC[C@]65O)C4)O[C@@H]3C)O[C@@H]2C)C[C@H](O)[C@@H]1O [Digitoxin] | 2 |  | 
2 | NC(=O)c1ncn([C@@H]2O[C@H](CO)[C@@H](O)[C@H]2O)n1 [Ribavirin] | 4 |  | 
3 | COc1cc(Cc2cnc(N)nc2N)cc(OC)c1OC [Trimethoprim] | 4 |  | 
4 | CC(C)C[C@H](NC(=O)[C@H](Cc1ccccc1)NC(=O)c1cnccn1)B(O)O [Bortezomib] | 4 | 79 nM | 
5 | COc1c(C)c2c(c(O)c1C/C=C(\C)CCC(=O)O)C(=O)OC2 [Mycophenolic acid] | 4 |  | 
6 | COc1cccc2c1C(=O)c1c(O)c3c(c(O)c1C2=O)C[C@@](O)(C(=O)CO)C[C@@H]3O[C@H]1C[C@H](N)[C@H](O)[C@H](C)O1 [Doxorubicin] | 1 |  | 
7 | C[C@H]1O[C@@H](O[C@H]2[C@@H](O)C[C@H](O[C@H]3[C@@H](O)C[C@H](O[C@H]4CC[C@@]5(C)[C@H](CC[C@@H]6[C@@H]5C[C@@H](O)[C@]5(C)[C@@H](C7=CC(=O)OC7)CC[C@]65O)C4)O[C@@H]3C)O[C@@H]2C)C[C@H](O)[C@@H]1O [Digoxin] | 1 |  | 
8 | Nc1nc(F)nc2c1ncn2[C@@H]1O[C@H](CO)[C@@H](O)[C@@H]1O [Fludarabine] | 4 | 2140 nM | 
9 | C=CCNc1nc(NCC=C)nc(N2CCN(C(c3ccc(F)cc3)c3ccc(F)cc3)CC2)n1 [Almitrine] | 3 |  | > 20000 nM
10 | CCCC(CCC)C(=O)O [Valproic acid] | 4 |  | 
11 | C[C@H]1COc2c(N3CCN(C)CC3)c(F)cc3c(=O)c(C(=O)O)cn1c23 [Levofloxacin] | 4 |  | 
